Experimental data: PubChem BioAssay (NCI)
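Protocol summary: plate cells (96-well), add compound at 5 concentrations, incubate 48 h, interpolate endpoints linearly. GI50 marks 50% less growth. TGI marks complete inhibition of growth.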

Experiments:
Assay in all cases: growth of human tumour cells (NCI), 48 h
HOP-62 NSCLC = tested on: HOP-62 NSCLC
SK-MEL-5 melanoma = tested on: SK-MEL-5 melanoma
NCI/ADR-RES ovarian = tested on: NCI/ADR-RES ovarian
OVCAR-8 ovarian = tested on: OVCAR-8 ovarian
ACHN renal = tested on: ACHN renal
RPMI-8226 leukemia = tested on: RPMI-8226 leukemia
HT29 colon = tested on: HT29 colon
SK-MEL-28 melanoma = tested on: SK-MEL-28 melanoma
DU-145 prostate = tested on: DU-145 prostate
786-0 renal = tested on: 786-0 renal
UO-31 renal = tested on: UO-31 renal
HL-60(TB) leukemia = tested on: HL-60(TB) leukemia
SNB-75 CNS = tested on: SNB-75 CNS
NCI-H23 lung = tested on: NCI-H23 lung
K-562 leukemia = tested on: K-562 leukemia
SW-620 colon = tested on: SW-620 colon
TK-10 renal = tested on: TK-10 renal
HCT-15 colon = tested on: HCT-15 colon
HCT-116 colon = tested on: HCT-116 colon
IGROV1 ovarian = tested on: IGROV1 ovarian
COLO 205 colon = tested on: COLO 205 colon
MDA-MB-231 breast = tested on: MDA-MB-231 breast
U251 CNS = tested on: U251 CNS
OVCAR-3 ovarian = tested on: OVCAR-3 ovarian

Q: Which results are given for `COC(=O)/C(C#N)=C\N1CCN(C(=O)c2ccco2)C1=S`?
A: GI50 (HOP-62 NSCLC): 22.3 µM; TGI (HOP-62 NSCLC): 46.8 µM; GI50 (SK-MEL-5 melanoma): 14.8 µM; TGI (SK-MEL-5 melanoma): 31 µM; GI50 (NCI/ADR-RES ovarian): 24 µM; TGI (NCI/ADR-RES ovarian): 58.4 µM; GI50 (OVCAR-8 ovarian): 15.5 µM; TGI (OVCAR-8 ovarian): 56.2 µM; GI50 (ACHN renal): 4.81 µM; TGI (ACHN renal): 23.3 µM; GI50 (RPMI-8226 leukemia): 3.3 µM; TGI (RPMI-8226 leukemia): 62.4 µM; GI50 (HT29 colon): 12.2 µM; TGI (HT29 colon): 55.1 µM; GI50 (SK-MEL-28 melanoma): 13 µM; TGI (SK-MEL-28 melanoma): 79.6 µM; GI50 (DU-145 prostate): 3.54 µM; TGI (DU-145 prostate): 14 µM; GI50 (786-0 renal): 6.25 µM; TGI (786-0 renal): 21.7 µM; GI50 (UO-31 renal): 5.19 µM; TGI (UO-31 renal): 21.3 µM; GI50 (HL-60(TB) leukemia): 6.94 µM; TGI (HL-60(TB) leukemia): > 100 µM; GI50 (SNB-75 CNS): 15.5 µM; TGI (SNB-75 CNS): > 100 µM; GI50 (NCI-H23 lung): 13.2 µM; TGI (NCI-H23 lung): 27.7 µM; GI50 (K-562 leukemia): 3.68 µM; TGI (K-562 leukemia): > 100 µM; GI50 (SW-620 colon): 5.2 µM; TGI (SW-620 colon): 19.7 µM; GI50 (TK-10 renal): 3.63 µM; TGI (TK-10 renal): 13.2 µM; GI50 (HCT-15 colon): 2950 nM; TGI (HCT-15 colon): > 100 µM; GI50 (HCT-116 colon): 3.95 µM; TGI (HCT-116 colon): 16 µM; GI50 (IGROV1 ovarian): 6.16 µM; TGI (IGROV1 ovarian): 26.4 µM; GI50 (COLO 205 colon): 31.7 µM; TGI (COLO 205 colon): > 100 µM; GI50 (MDA-MB-231 breast): 4.17 µM; TGI (MDA-MB-231 breast): 15.8 µM; GI50 (U251 CNS): 6.78 µM; TGI (U251 CNS): 37 µM; GI50 (OVCAR-3 ovarian): 4.92 µM; TGI (OVCAR-3 ovarian): 33.6 µM
